Bases are written 5' to 3'; sugars and linkages follow in the same order, as letters with counts (s phosphorothioate, o phosphodiester; PS: all linkages phosphorothioate). The collection does not say whether C is 5-methylated. l = locked nucleic acid (LNA); d = 2'-deoxy (DNA)
What follows are sequences tested against Tau (assay: rat primary cortical neurons, FLIPR, 25 uM ASO).

| Sequence | calcium oscillation score |
| --- | --- |
| CTACAAACCAGTTACCA (sugars l3 d11 l3, PS) | 69.9 % of control |
| AACCAGCTAGTGGTGCCACC (sugars l3 d14 l3, PS) | 33 % of control |
| GAATATTACACCATCC (sugars l4 d8 l4, PS) | 97 % of control |
| CCTTTTCTACTCTACTCTCA (sugars l2 d16 l2, PS) | 62.1 % of control |
| TTGAGTTGAGGGACCC (sugars l3 d10 l3, PS) | 0 % of control |
| AACATTCTCACCAAACCCA (sugars l3 d14 l2, PS) | 78.4 % of control |
| ACTTTATTTCCAAATTCACTTTTAC (sugars lldldddddddddddddddddlldl, PS) | 29.5 % of control |
| CAGCCATTTTCCATATA (sugars l3 d12 l2, PS) | 47.6 % of control |
| TCCCAGCGTGATCTTCCATC (sugars l4 d11 l5, PS) | 55.4 % of control |
| TGAAGTCAAGCTTCTCAGAT (sugars l3 d14 l3, PS) | 0 % of control |
| CATCAACACCTTTTAATTCA (sugars l2 d14 l4, PS) | 98.4 % of control |
| CAGTAACATCCATTTCT (sugars l4 d11 l2, PS) | 86.2 % of control |
| ATTTCCAAATTCACTTTTAC (sugars llddldldddddddddllll, PS) | 143 % of control |
| ACTAACTCTAAGTAGACCCT (sugars l3 d14 l3, PS) | 40.3 % of control |
| CTAAACCATGATCTTA (sugars l3 d10 l3, PS) | 21.1 % of control |
| CTTTATTTCCAAATTCACTT (sugars l1 d17 l2, PS) | 179 % of control |
| CATTCTATACTTCAGA (sugars l3 d9 l4, PS) | 79 % of control |
| TTATTTCCAAATTCACTTTT (sugars l5 d11 l4, PS) | 119 % of control |
| GCAGGCGCGAGCAGCG (sugars l3 d10 l3, PS) | 23.5 % of control |
| TGATAAAACATCCCTA (sugars l4 d8 l4, PS) | 80.5 % of control |
| CGGAAGGTCAGCTTGTGGGT (sugars l3 d14 l3, PS) | 14.5 % of control |
| CACATGCACCCAACTCTA (sugars l2 d13 l3, PS) | 60.2 % of control |

| Sequence | calcium oscillation score |
| --- | --- |
| AAGACCAAGCAGAGATAAAC (sugars l3 d14 l3, PS) | 16.7 % of control |
| ATTAACCCTTGATCATATTT (sugars l3 d14 l3, PS) | 40.5 % of control |
| CTTTACCCATCTTAATTC (sugars l4 d11 l3, PS) | 86.1 % of control |
| CTACCCCATTTTTGACAT (sugars l3 d13 l2, PS) | 48.7 % of control |
| GGCGTTCTCGCGGAAG (sugars l3 d10 l3, PS) | 102 % of control |
| CCTAGAACACAACACAC (sugars l3 d10 l4, PS) | 58.6 % of control |
| CACCTCCTGGTTTATGATGG (sugars l3 d14 l3, PS) | 0 % of control |
| AGTCCTAATCCTGTGC (sugars l3 d10 l3, PS) | 25.3 % of control |
| ACTTCTAATTTAGTCAC (sugars l4 d9 l4, PS) | 77.2 % of control |
| CCATCATACTCCAAGTT (sugars l3 d12 l2, PS) | 60.8 % of control |
| CAGACCATCAATTTCCC (sugars l2 d13 l2, PS) | 75.7 % of control |
| GAGTTTGTGCAAGGTC (sugars l3 d10 l3, PS) | 0 % of control |
| GTCCCGAGCCAAAGCC (sugars l3 d10 l3, PS) | 31.3 % of control |
| CAAAATCCTTAATTTAACCA (sugars l4 d12 l4, PS) | 60.6 % of control |
| AGTCCCGAGCCAAAG (sugars l3 d9 l3, PS) | 36.6 % of control |
| CCACTCCATGTCAATC (sugars l4 d10 l2, PS) | 69.3 % of control |
| CCTGATCACAAACCCT (sugars l3 d10 l3, PS) | 100 % of control |
| CATCTACTTTCTGTCACC (sugars l2 d14 l2, PS) | 63.4 % of control |
| TTCCTGCAAATTCTCAA (sugars l4 d10 l3, PS) | 61.7 % of control |
| GCCATTTTCCATATAAT (sugars l4 d11 l2, PS) | 37.5 % of control |
| ACTTTATTTCCAAATTCACTTTTAC (sugars llldddddddddddddddddldldl, PS) | 17.7 % of control |
| TTAATTATCTGCACCTT (sugars l3 d10 l4, PS) | 33.9 % of control |

| Sequence | calcium oscillation score |
| --- | --- |
| TATTTCCAAATTCACTTTTA (sugars l3 d14 l3, PS) | ≥ 200 % of control |
| TCTCTTAACTTTATTTTATT (sugars l4 d12 l4, PS) | 84.9 % of control |
| CTTTATTTCCAAATTCACTT (sugars l2 d2 l1 d12 l3, PS) | 108 % of control |
| TTGTAGACTATTTG (sugars l3 d8 l3, PS) | 63.3 % of control |
| TAGCCCTAAAGTCC (sugars l3 d8 l3, PS) | 87.6 % of control |
| CCATTTTCCATATAATTTT (sugars l3 d12 l4, PS) | 79.3 % of control |
| CCCTTTCAAACCAGCA (sugars l3 d11 l2, PS) | 91.8 % of control |
| CCTTTGAAAGTCCTTT (sugars l3 d11 l2, PS) | 121 % of control |
| AATCCTTAATTTAACCACAT (sugars l4 d13 l3, PS) | 56.8 % of control |
| ACTATGAAATCCTTCT (sugars l4 d8 l4, PS) | 92.1 % of control |
| CCCAGCGTGATCTTCCATCA (sugars lldllddddddddddlldll, PS) | 100 % of control |
| ACACCATCCAAGTCAAT (sugars l3 d10 l4, PS) | 16.2 % of control |
| GACGTGGGTGATATTGTCCA (sugars l3 d14 l3, PS) | 0 % of control |
| CATCCATTTTCTGACTCT (sugars l4 d12 l2, PS) | 42.4 % of control |
| AACATCATGTCACACAC (sugars l4 d9 l4, PS) | 39 % of control |
| CCTTTTCTACTCTACTCT (sugars l3 d13 l2, PS) | 63.3 % of control |
| ACTTTATTTCCAAATTCACTTTTAC (sugars l1 d19 l5, PS) | 86.5 % of control |
| CATTATTCTTTTTTTTTCCA (sugars l4 d14 l2, PS) | 43.3 % of control |
| CTAAAGTCCCAGGTCT (sugars l3 d10 l3, PS) | 59.2 % of control |
| ACCCCGAATTTACACC (sugars l3 d11 l2, PS) | 97.5 % of control |
| CACCTTCAGCCCAACTT (sugars l4 d11 l2, PS) | 41.6 % of control |
| CTTCCAAGACTTCTCC (sugars l4 d10 l2, PS) | 77.2 % of control |

| Sequence | calcium oscillation score |
| --- | --- |
| CTCAAAAATCAACGCCT (sugars l3 d10 l4, PS) | 57 % of control |
| TCATTTTTTATTCATAACTT (sugars l4 d12 l4, PS) | 62.3 % of control |
| AGAACTTCTAGTTATACAGT (sugars l3 d14 l3, PS) | 35.7 % of control |
| CACCTTGCTCAGGTCA (sugars l3 d10 l3, PS) | 134 % of control |
| TATTTCCAAATTCACTTTTA (sugars lldlddldddddddddllll, PS) | 114 % of control |
| AATCCTGTGCTTCAGG (sugars l3 d10 l3, PS) | 73 % of control |
| CTTTATTTCCAAATTCACTT (sugars l2 d1 l1 d13 l3, PS) | 132 % of control |
| CTGCTCAGCTAAGACCCTCA (sugars l3 d14 l3, PS) | 4.03 % of control |
| CTACATTTTTGTCTCAT (sugars l4 d10 l3, PS) | 65.4 % of control |
| TCCATTTTCACTGTTCA (sugars l3 d12 l2, PS) | 87.7 % of control |
| TTTTTACCAATTTGCCT (sugars l2 d11 l4, PS) | 55.5 % of control |
| TCCATCCTAAGTCAAC (sugars l3 d9 l4, PS) | 65.3 % of control |
| TGCTTTTCCCAATTATT (sugars l3 d11 l3, PS) | 69.5 % of control |
| TTCTCACCAAACCCAGA (sugars l3 d12 l2, PS) | 57.8 % of control |
| AGTCTACCATGTCGATGCTG (sugars l3 d14 l3, PS) | 71.2 % of control |
| AGACTATTTGCACACTGCCG (sugars l3 d14 l3, PS) | 40.7 % of control |
| AGTCTACCATGTCGAT (sugars l3 d10 l3, PS) | 69.1 % of control |
| CCCATTTACAATTCAG (sugars l3 d10 l3, PS) | 52.6 % of control |
| AACGCACCAGGAACCTTCCA (sugars l3 d14 l3, PS) | 51.4 % of control |
| AATATTACATCAGTCT (sugars l4 d8 l4, PS) | 34.6 % of control |
| ATTAATTATTAAATCTTCTC (sugars l4 d12 l4, PS) | 72.6 % of control |
| AAATCCTTAATTTAACCACA (sugars l4 d12 l4, PS) | 63.1 % of control |

| Sequence | calcium oscillation score |
| --- | --- |
| ACCCATCCCACAAAGAACAG (sugars l3 d14 l3, PS) | 34.2 % of control |
| TCTGTCTTGGCTTTG (sugars l3 d9 l3, PS) | 40.6 % of control |
| CGCAGGCGCGAGCAGC (sugars l3 d10 l3, PS) | 20.7 % of control |
| CAACAATCCAACCACTAAA (sugars l4 d11 l4, PS) | 89.8 % of control |
| AAGTCCCGAGCCAAA (sugars l3 d9 l3, PS) | 102 % of control |
| CTCCTGGTTTATGATGGATG (sugars l3 d14 l3, PS) | 35 % of control |
| AGCTTCCACATTTTACA (sugars l3 d12 l2, PS) | 63.8 % of control |
| CTTTTCTCAATGTAACC (sugars l4 d10 l3, PS) | 65.9 % of control |
| TTAACTCATCAACACCTT (sugars l3 d11 l4, PS) | 114 % of control |
| ACTTTATTTCCAAATTCACT (sugars l4 d11 l5, PS) | 115 % of control |
| CCTACTTTATTCCCTTA (sugars l2 d12 l3, PS) | 95.9 % of control |
| CCATCAATTTGGAAAGATGA (sugars l3 d14 l3, PS) | 52.3 % of control |
| GCGAGTCTACCATGTCGATG (sugars l3 d14 l3, PS) | 0 % of control |
| TCCCGTCTTTGCTTTTACTG (sugars l3 d14 l3, PS) | 3.7 % of control |
| TTACCCATCTTAATTCATTT (sugars l4 d14 l2, PS) | 96.1 % of control |
| ACCATCATACTCCAAG (sugars l4 d9 l3, PS) | 76 % of control |
| ATATCATATCCTAAGC (sugars l4 d9 l3, PS) | 50.9 % of control |
| TTCCATCACTTCGAACTCCT (sugars l3 d14 l3, PS) | 13.6 % of control |
| GCTGAGGTGCTCTGGT (sugars l3 d10 l3, PS) | 19.2 % of control |
